According to US11850237B2, “Compounds and methods for treating influenza” (priority 2009, dated 2023):
Values after ≈ are worked out from the molar mass of the structure shown. Read-outs that look alike come from different tables or passages of the source.

Experiments:
MDCK cells = experiment: Toxicity / cell viability by MTT in uninfected MDCK cells; assay type: cell-based, canine; conditions: MDCK cells, MTT
Description: (§1) Cell culture, treatment and transfection-Madin-Darby canine kidney (MDCK) cells, and human A549 alveolar type II-like epithelial, Jurkat Tlymphoblastoid and U397 monocytic leukemia cells were grown at 37° C. in a 5% CO2 atmosphere in RPMI 1640 (Invitrogen), supplemented with 10% fetal calf serum (FCS), 2 mM glutamine and antibiotics. Test compounds were added immediately after 1-hour adsorption period, and kept in the culture medium for the entire time of the experiment, unless differently specified. […] Cell viability was determined by the 3-(4,5-dimethylthiazol-2-yl)-2,5-diphenyltetrazolium bromide (MTT) to MTT formazan conversion assay (Sigma-Aldrich) as described previously. Microscopical examination of mock-infected or virus-infected cells was performed using a Leica DM-IL microscope and images were captured on a Leica DC 300 camera using Leica Image-Manager500 software.

H1N1 A/PR/8/34 (PR8) = experiment: microbe, parasite or virus in culture; assay type: cell-based, influenza A virus; conditions: for EC50 / EC90: Influenza A virus; for EC90: read-out: Virus Yield EC90; for antiviral activity against PR8, overall rating: PR8 influenza A virus, Table 1
[1] = test system: H1N1 A/PR/8/34 (PR8) virus; experiment: microbe, parasite or virus in culture; assay type: cell-based, influenza A virus; conditions: for PR8 Yield: Nitazoxanide 0 μg/ml
[2] = Toxicity / cell viability by MTT in uninfected MDCK cells; assay type: cell-based, canine; conditions: dog, uninfected MDCK cells; uninfected cells
Description: as §1

[3] = test system: H1N1 A/PR/8/34 (PR8) virus; experiment: microbe, parasite or virus in culture; assay type: cell-based, influenza A virus; conditions: oseltamivir alone at test concentrations up to 1
[4] = molecular target: viral hemagglutinin (HA0) (Influenza A virus, UniProt P03452); assay type: cell-based
[5] = PR8, MDCK cells, read-out: Virus Yield EC50
[6] = MDCK, 24 h, read-out: EC50, inhibition of virus replication

viral hemagglutinin (HA0), sequence (P03452 18-565 limits assumed): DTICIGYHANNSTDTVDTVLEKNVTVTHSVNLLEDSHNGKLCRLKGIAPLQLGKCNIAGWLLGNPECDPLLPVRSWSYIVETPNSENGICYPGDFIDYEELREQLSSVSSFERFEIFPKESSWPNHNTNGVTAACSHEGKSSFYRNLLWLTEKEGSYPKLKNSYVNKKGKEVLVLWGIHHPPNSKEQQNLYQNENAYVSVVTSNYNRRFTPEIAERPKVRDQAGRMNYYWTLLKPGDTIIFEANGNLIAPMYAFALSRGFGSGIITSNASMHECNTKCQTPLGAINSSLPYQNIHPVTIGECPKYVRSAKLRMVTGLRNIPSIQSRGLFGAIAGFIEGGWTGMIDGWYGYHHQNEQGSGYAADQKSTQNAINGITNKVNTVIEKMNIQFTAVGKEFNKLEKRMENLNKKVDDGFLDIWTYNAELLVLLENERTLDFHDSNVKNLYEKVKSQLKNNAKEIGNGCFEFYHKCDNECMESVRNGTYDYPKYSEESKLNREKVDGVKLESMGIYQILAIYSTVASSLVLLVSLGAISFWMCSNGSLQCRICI

Row | Compound | Toxicity LD50 (MTT) (MDCK cells) [µg/mL] | EC50 (H1N1 A/PR/8/34 (PR8); [5]) [mg/L] | EC90 (H1N1 A/PR/8/34 (PR8); PR8, MDCK cells) [mg/L] | also measured
1 | O=C(Nc1ncc([N+](=O)[O-])s1)c1ccccc1[O-].[Na+] [Compound 3, tizoxanide sodium salt] | >50 | 0.4 | 2.5 | antiviral activity against PR8, overall rating (H1N1 A/PR/8/34 (PR8)): potent and selective
2 | CS(=O)(=O)c1csc(NC(=O)c2cccc(O)c2)n1 [Compound 32] | >50 | > 50 | > 50 | –
3 | CC(=O)Oc1ccccc1C(=O)Nc1nc([S+](C)[O-])cs1 (centres unmarked) [Compound 29] | >50 | 10 (≈ 30.8 µM) | > 50 | –
4 | CC(=O)Oc1ccccc1C(=O)Nc1ncc(S(=O)(=O)c2ccc([N+](=O)[O-])cc2)s1 [Compound 51] | 30 | 3.5 (≈ 7.82 µM) | 9 (≈ 20.1 µM) | –
5 | O=C(Nc1nc(S(=O)(=O)C2CCCCC2)cs1)c1ccccc1O [Compound 39] | >50 | 10 (≈ 27.3 µM) | 30 (≈ 81.9 µM) | –
6 | CC(=O)N[C@H]1[C@H]([C@H](O)[C@H](O)CO)OC(C(=O)O)=C[C@@H]1N=C(N)N [Zanamivir] | – | – | – | EC50 ([1]; Influenza A virus, zanamivir alone, PR8, MDCK cells, read-out: EC50): 1 µM; PR8 Yield ([1]; Zanamivir 0.01 μM): 48 HAU/ml; PR8 Yield ([1]; Zanamivir 0.1 μM): 48 HAU/ml; PR8 Yield ([1]; Zanamivir 1 μM): 24 HAU/ml; effect on viral replication ([1]; zanamivir alone at 0.1 μM): had no effect; reduction (inhibition) of virus yield ([1]; zanamivir alone at the highest test concentration of 1): 50%
7 | CC(=O)Oc1ccccc1C(=O)Nc1nc(S(=O)(=O)C2CCCCC2)cs1 [Compound 38] | >50 | 25 (≈ 61.2 µM) | > 50 | –
8 | CC(=O)Oc1ccc(C(=O)Nc2nc(S(C)(=O)=O)cs2)cc1 [Compound 34] | >50 | > 50 | > 50 | –
9 | CCOC(=O)Oc1ccccc1C(=O)Nc1ncc([N+](=O)[O-])s1 [Compound 15] | 30 | 1 (≈ 2.96 µM) | 7 (≈ 20.8 µM) | –
10 | CS(=O)(=O)c1cnc(NC(=O)c2ccc(O)cc2)s1 [Compound 64] | >50 | > 50 | > 50 | –
11 | CC(C)COC(=O)Oc1ccccc1C(=O)Nc1ncc([N+](=O)[O-])s1 [Compound 14] | 20 | 1 (≈ 2.74 µM) | 8 (≈ 21.9 µM) | –
12 | CC(=O)Oc1ccccc1C(=O)Nc1ncc(S(C)(=O)=O)s1 [Compound 52] | >50 | 30 (≈ 88.1 µM) | > 50 | –
13 | CC(=O)Oc1cccc(C(=O)Nc2nc(S(C)(=O)=O)cs2)c1 [Compound 31] | >50 | > 50 | > 50 | –
14 | CSc1csc(NC(=O)c2ccc(OC(C)=O)cc2)n1 [Compound 33] | >50 | > 50 | > 50 | –
15 | CC(=O)Oc1ccccc1C(=O)Nc1nc(S(C)(=O)=O)cs1 [Compound 27] | >50 | 0.1 (≈ 0.294 µM) | 0.8 (≈ 2.35 µM) | CC50 [2]: > 50 mg/L; EC50 (H1N1 A/PR/8/34 (PR8); [6]): 0.1 mg/L (≈ 0.294 µM); potency relative to NTZ and TIZ (H1N1 A/PR/8/34 (PR8); PR8, MDCK cells): 10 times; antiviral activity against PR8, overall rating (H1N1 A/PR/8/34 (PR8)): potent and selective
16 | CC(C)S(=O)(=O)c1csc(NC(=O)c2ccccc2O)n1 [Compound 37] | >50 | 0.6 (≈ 1.84 µM) | 15 (≈ 46 µM) | antiviral activity against PR8, overall rating (H1N1 A/PR/8/34 (PR8)): potent and selective
17 | CC(=O)Oc1cccc(C(=O)Nc2ncc(S(C)(=O)=O)s2)c1 [Compound 65] | >50 | > 50 | > 50 | –
18 | CS(=O)(=O)c1cnc(NC(=O)c2ccccc2[O-])s1.[Na+] [Compound 54] | >50 | 10 | > 50 | –
19 | CS(=O)(=O)c1cnc(NC(=O)c2ccccc2O)s1 [Compound 53] | >50 | 10 (≈ 33.5 µM) | > 50 | –
20 | CCC(=O)Oc1ccccc1C(=O)Nc1ncc([N+](=O)[O-])s1 [Compound 16] | 20 | 1 (≈ 3.11 µM) | 8 (≈ 24.9 µM) | –
21 | CCOC(=O)C1=C[C@@H](OC(CC)CC)[C@H](NC(C)=O)[C@@H](N)C1 [oseltamivir, reference compound] | – | – | – | reduction (inhibition) of virus yield [3]: did not observe reduction
22 | CS(=O)(=O)c1csc(NC(=O)c2ccccc2O)n1 [Compound 28] | >50 | 0.1 (≈ 0.335 µM) | 0.7 (≈ 2.35 µM) | CC50 [2]: > 50 mg/L; EC50 (H1N1 A/PR/8/34 (PR8); [6]): 0.1 mg/L (≈ 0.335 µM); potency relative to NTZ and TIZ (H1N1 A/PR/8/34 (PR8); PR8, MDCK cells): 10 times; antiviral activity against PR8, overall rating (H1N1 A/PR/8/34 (PR8)): potent and selective
23 | C[S+]([O-])c1csc(NC(=O)c2ccccc2O)n1 (centres unmarked) [Compound 30] | >50 | 10 (≈ 35.4 µM) | > 50 | –
24 | O=C(Oc1ccccc1C(=O)Nc1ncc([N+](=O)[O-])s1)c1ccccc1 [Compound 17] | >50 | 3 (≈ 8.12 µM) | 9 (≈ 24.4 µM) | –
25 | CC(=O)Oc1ccccc1C(=O)Nc1nc(S(=O)(=O)C(C)C)cs1 [Compound 36] | >50 | 1 (≈ 2.71 µM) | 8 (≈ 21.7 µM) | antiviral activity against PR8, overall rating (H1N1 A/PR/8/34 (PR8)): potent and selective
26 | CS(=O)(=O)c1cnc(NC(=O)c2cccc(O)c2)s1 [Compound 66] | >50 | > 50 | > 50 | –
27 | CCCCS(=O)(=O)c1cnc(NC(=O)c2ccccc2OC(C)=O)s1 [Compound 59] | >50 | 5 (≈ 13.1 µM) | 30 (≈ 78.4 µM) | –
28 | tunicamycin [TM, reference compound] | – | – | – | HA0 glycosylation (glucosamine, mannose incorporation) [4]: completely prevented HA0 glycosylation; intracellular HA0 levels / accumulation [4]: caused a decrease in HA0 accumulation
29 | CC(=O)Oc1ccc(C(=O)Nc2ncc(S(C)(=O)=O)s2)cc1 [Compound 63] | >50 | 10 (≈ 29.4 µM) | > 50 | –
30 | CS(=O)(=O)c1csc(NC(=O)c2ccc(O)cc2)n1 [Compound 35] | >50 | > 50 | > 50 | –
